Source: patent publication US6407073B1, “Use of coumarin derivatives for the treatment of digestive tract disorders” (Bio-Monde Preparations Limited, priority 1997, dated 2002)
Marks after values point to notes of the source that are not given here.

Columns and labels:
[1] = test system: mice with AAP-induced hepatotoxicity; assay: Survival of mice with acetaminophen (AAP)-induced hepatotoxicity; type: in vivo, CBA/H Zgr inbred mice; settings: for No of dead mice/Total No of mice / Mortality (%): 48 hours; for mortality in comparison with control mice given saline: 250 mg/kg
Source text: The hepatoprotective effect of a composition in accordance with the invention was investigated in mice with acetaminophen (paracetamol) induced hepatotoxicity.
CBA/H Zgr inbred mice were raised in an animal colony unit. Mice of both sexes aged 3 to 4 month were used in the experiments. Mice were maintained under standard laboratory conditions, fed with commercially available murine food pellets and allowed water ad libitum.
The procedure of Guarner was followed (see Hepatology 1988; 3:248-53). To induce hepatic drug-metabolising enzymes, mice were given phenobarbitone-sodium in drinking water for 7 days (0.3 g/L). Thereafter, mice were fasted overnight. […]
The above ingredients were dissolved in phosphate buffered saline (PBS) to which several drops of Tween 20™ (polyoxyethylene 20 sorbitan monolaurate) were added (50 μl/ml). The resulting white milk suspension was administered to mice intraperitoneally.
At the same time, control animals were given 0.5 ml of pyrogen-free saline to which several drops of Tween 20™ (50 μl/ml) were added.
Acetaminophen, dissolved in heated PBS, was given intragastrically, by stomach tube, in a volume of 0.5 ml. Animals were allowed food 4 hours later. Mortality of mice was followed for 48 hours, as previous results have shown that control mice (given saline rather than the composition before acetaminophen) either die within this period or fully recover and survive indefinitely.
Differences in survival between groups of mice were compared by χ^2-test. Plasma AST and ALT concentrations are expressed as means±SEM and differences between groups were compared by Student's t-test.

[2] = test system: mice with AAP-induced hepatotoxicity; assay: Plasma aminotransferase levels in mice with AAP-induced hepatotoxicity; type: in vivo, CBA/H Zgr inbred mice
Method: Plasma aspartate aminotransferase (AST) and alanine aminotransferase (ALT) were measured 24 hours after the administration of acetaminophen, because it has been observed that the levels of AST and ALT are at their peak values at this time. Mice were given 250 units of […] intraoeritoneally 15 minutes before bleeding. Blood was obtained by puncture of medial orbital angle using glass capillary tubes. Plasma was stored at −20° C. until aminotransferase determination, which was carried out using standard laboratory techniques (see Expert Panel on Enzymes, Committee on Standards, Clin. Chem. Biochem. 1977; 15: 39-51 and Clin. Chem. Acta. 1980; 105: 147F-54F). Differences in survival between groups of mice were compared by χ^2-test. Plasma AST and ALT concentrations are expressed as means±SEM and differences between groups were compared by Student's t-test. The effect of a Compound of the invention (Hymecromone) was investigated on plasma aminotransferase levels in mice with AAP-induced hepatotoxicity. Hymecromone (250 mg/kg) or a control of saline was given to mice 30 minutes before administration of acetaminophen (220 mg/kg). Plasma AST and ALT were measured 24 hours after acetaminophen administration. […] As shown, in comparison with normal mice, the administration of acetaminophen increased AST and ALT by approximately 19 and 100 times, respectively.

[3] = Table 1, Hymecromone 50 mg/kg i.p. 30 minutes before AAP 300 mg/kg
[4] = Table 1, Hymecromone 250 mg/kg i.p. 30 minutes before AAP 300 mg/kg, P < 0.01 vs saline
[5] = Table 2, Hymecromone 50 mg/kg i.p. 30 minutes before AAP 250 mg/kg
[6] = Table 2, Hymecromone 250 mg/kg i.p. 30 minutes before AAP 250 mg/kg, P < 0.001 vs saline
[7] = Table 3, Hymecromone 250 mg/kg i.p. 30 minutes before AAP 250 mg/kg, P < 0.001 vs saline
[8] = Hymecromone 250 mg/kg, AAP 220 mg/kg, P<0.005
[9] = plasma, Hymecromone 250 mg/kg 30 minutes before AAP 220 mg/kg, 24 hours after AAP, mean, n = 16, P < 0.005 vs saline

For Cc1cc(=O)oc2cc(O)ccc12 [Hymecromone, 7-hydroxy-4-methylcoumarin], the “No of dead mice/Total No of mice” value ([1]; Table 1, Hymecromone 10 mg/kg i.p. 30 minutes before AAP 300 mg/kg intragastrically) was 12/12, the “Mortality (%)” value ([1]; Table 1, Hymecromone 10 mg/kg i.p. 30 minutes before AAP 300 mg/kg) was 100% and the “Mortality (%)” value [1, 3] was 92%. The “No of dead mice/Total No of mice” value [1, 3] was 11/12, the “Mortality (%)” value [1, 4] was 29% and the “No of dead mice/Total No of mice” value [1, 4] was 2/7. The “mortality in comparison with control mice given saline” value ([1]; Table 1 experiment, P<0.01) was “significantly reduced the mortality”, the “Mortality (%)” value [1, 5] was “(93) %” and the “No of dead mice/Total No of mice” value [1, 5] was 9/13. For the same compound, the “Mortality (%)” value [1, 6] was “(0)^c %”, the “No of dead mice/Total No of mice” value [1, 6] was 0/13 and the “Mortality (%)” value [1, 7] was “(0)^c %”. The “No of dead mice/Total No of mice” value [1, 7] was 0/15, the “mortality in comparison with control mice given saline” value ([1]; two further experiments (Tables 2 and 3), P<0.001) was “statistically significantly reduced the mortality” and the “reduction of the increase of ALT in comparison with control mice pretreated with saline” value [2, 8] was “three times”. The “reduction of the increase of AST in comparison with control mice pretreated with saline” value [2, 8] was “five times”, the ALT [2, 9] was 776 U/L and the AST [2, 9] was 267 U/L.
